Source: article PMC9019100, “Development of NanoLuc-targeting protein degraders and a universal reporter system to benchmark tag-targeted degradation platforms” (Nature Communications, 2022)
“And” between values parts separate entries of the source, which are not always exact repeats. Equal values may be shown once. Read-outs that look alike come from different tables or passages of the source.

Legend:
[1] = biological target: T1, Halo-EGFP-NanoLuc-FKBP^F36V (H-E-N-F) fusion protein (UniProt P0A3G2+P62942+Q9GV45, A155T/A167V/A172T/A224E/A31E/A60N/A81I/C128F/C176G/D78G/E160K/E257K/F37V/F95D/H272N/I117V/K175M/K195N/K70R/L47V/L54V/L88M/L99Q/M102K/N193R/N227D/P142E/P291S/Q151K/Q38R/Q45L/S2A/S58T/T264A/V71I/Y165I/Y273L/Y87F); assay type: cell-based; details: +dox; for Blank corrected (470-80) luminescence: single well replicates; for Blank corrected Raw Data (470-80): PROTAC 500nM, replicate wells
Target sequence in this assay (Q9GV45 other isoform, or with tags, fused parts or gaps with the stated changes): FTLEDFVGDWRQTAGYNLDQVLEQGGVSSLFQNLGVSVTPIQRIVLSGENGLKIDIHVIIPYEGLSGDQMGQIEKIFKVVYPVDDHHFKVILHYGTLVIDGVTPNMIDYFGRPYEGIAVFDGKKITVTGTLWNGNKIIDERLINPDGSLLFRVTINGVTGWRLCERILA
Target sequence in this assay (P0A3G2 other isoform, or with tags, fused parts or gaps with the stated changes): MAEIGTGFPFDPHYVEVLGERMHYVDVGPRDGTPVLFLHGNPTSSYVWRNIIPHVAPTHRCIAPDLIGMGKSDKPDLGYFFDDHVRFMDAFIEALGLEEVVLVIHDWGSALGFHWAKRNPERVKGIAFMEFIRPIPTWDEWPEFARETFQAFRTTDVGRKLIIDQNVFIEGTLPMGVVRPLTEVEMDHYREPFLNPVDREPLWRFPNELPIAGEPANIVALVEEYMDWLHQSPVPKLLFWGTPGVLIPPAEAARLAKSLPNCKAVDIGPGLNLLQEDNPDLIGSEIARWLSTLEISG
Target sequence in this assay (P62942 whole entry F37V, the tested form may be a part): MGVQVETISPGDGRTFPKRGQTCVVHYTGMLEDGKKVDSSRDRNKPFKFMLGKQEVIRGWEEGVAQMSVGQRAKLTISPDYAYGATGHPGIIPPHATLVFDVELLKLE

Fibrillarin-Halo = biological target: T2, Fibrillarin-Halo (Rhodococcus rhodochrous, UniProt P0A3G2, A155T/A167V/A172T/A224E/C128F/C176G/D78G/E160K/E257K/H272N/K175M/K195N/L47V/L88M/N227D/P291S/S2A/S58T/T264A/Y273L/Y87F); assay type: cell-based; details: 500 nM, 10 h
T2 construct: endogenous in cells; host or cells: 293T, CRISPR/PITCh knock-in at the FBL locus
T2 sequence (P0A3G2 other isoform, or with tags, fused parts or gaps with the stated changes): as the sequence (P0A3G2 other isoform, or with tags, fused parts or gaps with the stated changes) above

[2] = system: MLKL^−/− HT29 cells expressing MLKL-Halo; assay type: cell-based
Experimental: (§1) Cell death was assessed by flow cytometric analysis of PI exclusion. […] Cell death was assessed by flow cytometric analysis of PI exclusion. […] Cell death was assessed by flow cytometric analysis of PI exclusion. e N = 4, f N = 3 independent experiments (symbols), EB represent mean ± SD. g Western from MLKL^−/−CASP8^−/− HT29 cells stably expressing the doxycycline-inducible C-terminal fusion protein, MLKL-NanoLuc (MLKL-NLuc) and constitutively expressing the C-terminal fusion protein caspase-8-FKBP^F36V. […] Cell death was assessed using an IncuCyte and Cytotox-Red uptake. N = 3 independent experiments, one representative experiment shown, EB represent mean ± SD.

[3] = system: MLKL^−/− HT29 cells expressing untagged MLKL; assay type: cell-based
Experimental: as §1

wild-type HT29 cells = assay: Necroptosis assay (PI exclusion, flow cytometry), wild-type HT29 cells, TNF+SM+IDN; assay type: cell-based, human; details: sheet S5H
Experimental: To simulate necroptosis, cells were seeded into 96-well plates ±40 ng/mL doxycycline, to induce construct expression, and treated with 100 ng/mL FLAG-TNF (recombinant human, in-house), 500 nM compound A Smac mimetic (kindly gifted by TetraLogics Pharmaceuticals) and 5 μM IDN-6556 (Cayman) or 10 uM Z-VAD-fmk (Selleckchem) overnight (16–24 h). Degrader compounds or a DMSO vehicle control were added for 5 h, as stated in the Fig. legends. Cells were detached using Trypsin-EDTA (Merck) and resuspended in cell supernatants containing 10 μg/mL propidium iodide (PI). PI exclusion analysis was performed using an LSR II flow cytometer (Becton Dickinson, NJ) with 10,000 single-cell events per sample. Flow cytometry data were analysed using WEASEL version 2.7 software (Frank Battye).
Supplementary Figure 5. […]
NC4. Data are representative of N = 3 independent experiments. f-h. HT29 cells were stimulated with DMSO (control) or 500 nM of degrader for 5 hours before the addition of TNF (100 ng/mL) + Smac mimetic (compound A; 500 nM-1 µM) + caspase inhibitor; Emricasan (IDN) (5 µM), for 24 hours. Cell death was assessed by flow cytometric analysis of PI exclusion. N = 3 replicates (symbols) is shown, EB; mean ± SD. Data are representative of N = 3 independent experiments. i. Representative flow cytometry gating strategy. Source data are provided as a Source Data file.

[4] = biological target: T1, Halo-EGFP-NanoLuc-FKBP^F36V (H-E-N-F) fusion protein; assay type: cell-based; design: expressed in transfected cells; host or cells: immortalized mouse dermal fibroblasts (iMDFs), ubiquitin promoter, constitutive; details: 500 nM; 24 or 48 h after removal
Target sequence in this assay (P0A3G2 other isoform, or with tags, fused parts or gaps with the stated changes): as above
Target sequence in this assay (Q9GV45 other isoform, or with tags, fused parts or gaps with the stated changes): as the sequence (Q9GV45 other isoform, or with tags, fused parts or gaps with the stated changes) above
Target sequence in this assay (P62942 whole entry F37V, the tested form may be a part): as the sequence (P62942 whole entry F37V, the tested form may be a part) above

Compound: Cc1ncsc1-c1ccc(CNC(=O)[C@@H]2C[C@@H](O)CN2C(=O)[C@@H](NC(=O)C2(C#N)CC2)C(C)(C)C)c(OCCOCCOCCOCCCCCCCl)c1 [HV2]
- Blank corrected (470-80) luminescence ([1]; 3.9nM PROTAC): 79470 and 68951 and 78183 and 76420
- Blank corrected (470-80) luminescence ([1]; 7.8nM PROTAC): 72797 and 64329 and 67516 and 60174
- Blank corrected (470-80) luminescence ([1]; 31.25nM PROTAC): 46917 and 44939 and 48832 and 45085
- Blank corrected (470-80) luminescence ([1]; 62.5nM PROTAC): 40512 and 37700 and 38124 and 40329
- Blank corrected (470-80) luminescence ([1]; 250nM PROTAC): 30717 and 30890 and 31914 and 28801
- Blank corrected (470-80) luminescence ([1]; 500nM PROTAC, 5h): 69924 and 50626 and 73472 and 59650
- Blank corrected (470-80) luminescence ([1]; 500nM PROTAC, 8h): 70698 and 62420 and 68286 and 57616
- Blank corrected (470-80) luminescence ([1]; 500nM PROTAC, 24h): 56615 and 44142 and 53902 and 55861
- Blank corrected (470-80) luminescence ([1]; 500nM PROTAC): 27860 and 28299 and 29718 and 30521
- Blank corrected (470-80) luminescence ([1]; 1uM PROTAC): 27861 and 28948 and 28638 and 31530
- Blank corrected Raw Data (470-80) ([1]; DMSO (control) co-treatment): 30990 and 24165 and 26494 and 23014
- Blank corrected Raw Data (470-80) ([1]; co-treatment with MG132 (10uM)): 55749 and 70265 and 64908 and 78527
- Dmax (densitometry) (Fibrillarin-Halo): ~ 94.8%
- TNF+911+zVAD (PI exclusion) [2]: 75.3 and 62.1 and 72
- concentration required to maintain cell survival [2]: 125 nM
- TNF+911+zVAD (PI exclusion) ([2]; MLKL-/- + MLKL HALO, TNF+911+zVAD, degrader 3.9nM, replicate columns): 6.8 and 4 and 7.3
- TNF+911+zVAD (PI exclusion) ([2]; MLKL-/- + MLKL HALO, TNF+911+zVAD, degrader 7.8nM, replicate columns): 6.9 and 4.5 and 9.3
- TNF+911+zVAD (PI exclusion) ([2]; MLKL-/- + MLKL HALO, TNF+911+zVAD, degrader 31.25nM, replicate columns): 33 and 22.8 and 23.9
- TNF+911+zVAD (PI exclusion) ([2]; MLKL-/- + MLKL HALO, TNF+911+zVAD, degrader 62.5nM, replicate columns): 77 and 48.6 and 62.6
- TNF+911+zVAD (PI exclusion) ([2]; MLKL-/- + MLKL HALO, TNF+911+zVAD, degrader 250nM, replicate columns): 88.6 and 71.9 and 68.6
- TNF+911+zVAD (PI exclusion) ([2]; MLKL-/- + MLKL HALO, TNF+911+zVAD, degrader 500nM, replicate columns): 85.7 and 70.1 and 67.1
- TNF+911+zVAD (PI exclusion) ([2]; MLKL-/- + MLKL HALO, TNF+911+zVAD, degrader 1000nM, replicate columns): 77.8 and 71.5 and 66.8
- TNF+911+zVAD (PI exclusion) [3]: 6.7 and 3.6 and 5.5
- TNF+911+zVAD (PI exclusion) ([3]; MLKL-/- + MLKL, TNF+911+zVAD, degrader 3.9nM, replicate columns): 7.3 and 3.4 and 6.6
- TNF+911+zVAD (PI exclusion) ([3]; MLKL-/- + MLKL, TNF+911+zVAD, degrader 7.8nM, replicate columns): 7.3 and 4.5 and 5.7
- TNF+911+zVAD (PI exclusion) ([3]; MLKL-/- + MLKL, TNF+911+zVAD, degrader 31.25nM, replicate columns): 9.7 and 4.3 and 5.6
- TNF+911+zVAD (PI exclusion) ([3]; MLKL-/- + MLKL, TNF+911+zVAD, degrader 62.5nM, replicate columns): 7.8 and 3.5 and 5.8
- TNF+911+zVAD (PI exclusion) ([3]; MLKL-/- + MLKL, TNF+911+zVAD, degrader 250nM, replicate columns): 6.5 and 3.9 and 5.8
- TNF+911+zVAD (PI exclusion) ([3]; MLKL-/- + MLKL, TNF+911+zVAD, degrader 500nM, replicate columns): 8.6 and 4.3 and 7.2
- TNF+911+zVAD (PI exclusion) ([3]; MLKL-/- + MLKL, TNF+911+zVAD, degrader 1000nM, replicate columns): 8.3 and 4 and 5.4
- viable cells (PI exclusion) (wild-type HT29 cells; TNF+SM+IDN): 9.6 and 6.1 and 6.3
- viable cells (PI exclusion) (wild-type HT29 cells; Untreated (no death stimulus)): 75.8 and 75.3 and 68.5
- time up to which degradation was maintained, degrader removed at 5 h [4]: depletion not maintained
